Results from patent US4208410A, “Dibenzo[d,g][1,3,6]dioxazocine derivatives” (priority 1977, dated 1980).
Where a name gives a salt, the structure may show the parent alone. Read-outs that look alike come from different tables or passages of the source.

What was measured:
[1] = Acute toxicity in white mice, peroral; conditions: mouse, in vivo, po, white mice CFLP
Description: Acute toxicity of the compounds was tested on white mice from the strain CFLP. Administration was effected perorally.

[2] = tested on: tremor induced by tremorine; assay: Inhibition of tremor induced by tremorine (Science, 124, 79/1956/); format: in vivo, white mice; conditions: for ED50: Mus musculus, read-out: ED50, inhibition of tremor by tremorine
Description: (§1) This activity was tested on white mice, on the basis of the inhibition of tremor induced by tremorine [1,1'-(2-butynylene)-dipyrrolidine] and of nicotine lethality. For comparison Trihexyphenidyl [α-cyclohexyl-α-phenyl-1-piperidinepropanol hydrochloride] and L-DOPA [L-(-)-β-(3,4-dihydroxyphenyl)alanine] are used.

mice [3] = assay: Duration of the local anaesthetic effect; format: in vivo
mice [4] = assay: Local anaesthetic activity (Acta Chirurg. Scand. 116, 351 (1958)); format: in vivo; conditions: for EC50 (concentration at which the local anaesthetic activity amounted to 50%): 0.25% and 0.5% solutions tested; for LD50/EC50: local anaesthetic activity
Description: In order to observe the local anaesthetic activity of the instant compounds 0.25% and 0.5% solution thereof were tested following the method described in Acta Chirurg. Scand. 116, 351 (1958). The test animals were mice.

nicotine lethality = assay: animal or person; format: in vivo, white mice; conditions: po; for ED50: Mus musculus, read-out: ED50, inhibition of nicotine lethality; for LD50/ED50, inhibition of nicotine lethality: mouse, in vivo
Description: as §1

SMILES | LD50 [1] [mg/kg] | ED50 ([2]; po, white mice) [mg/kg] | LD50/ED50, inhibition of tremor by tremorine ([2]; mouse, in vivo, po) | Duration of the effect (mice [3]; 0.25% solution) [min] | Duration of the effect (mice [3]; 0.5% solution) [min] | EC50 (concentration at which the local anaesthetic activity amounted to 50%) (mice [4]) [%] | LD50/EC50 (mice [4]) | ED50 (nicotine lethality) [mg/kg] | LD50/ED50, inhibition of nicotine lethality (nicotine lethality) | ED50 ([2]; po) [mg/kg] | LD50/ED50, inhibition of tremor by tremorine ([2]; p.o., white mice)
Clc1ccc2c(c1)Nc1ccccc1OCO2 [Example 1, 2-Chloro-12H-dibenzo[d,g][1,3,6]dioxazocine] | > 2000 |  |  |  |  |  |  |  |  |  | 
CN(C)CCCN1c2ccccc2OCOc2ccc(Cl)cc21 [Example 3, 2-Chloro-12H-12-(3-dimethylaminopropyl)-dibenzo[d,g][1,3,6]dioxazocine maleinate] | 760 | 8 | 95 | 71 | 103 | 0.15 | 5060 | 14 | 54 |  | 
Clc1ccc2c(c1)N(CCN1CCCCC1)c1ccccc1OCO2 [Example 5, 2-Chloro-12H-12-(2-piperidinoethyl)-dibenzo[d,g][1,3,6]dioxazocine hydrochloride] | 700 | 18 | 38.9 | 34 | 65 | 0.32 | 2180 | 60 | 12 |  | 
CC(CN(C)C)CN1c2ccccc2OCOc2ccc(Cl)cc21 (stereo not shown) [Example 6, 2-Chloro-12H-12-(2-methyl-3-dimethylaminopropyl)dibenzo[d,g][1,3,6]dioxazocine hydrochloride] | 270 | 11 | 25 | 67 | 161 | 0.12 | 2250 |  | 25 |  | 
CN1CCN(CCN2c3ccccc3OCOc3ccc(Cl)cc32)CC1 [Example 7, 2-Chloro-12H-12-[2-(N-methylpiperazino)-ethyl]dibenzo[d,g][1,3,6]dioxazocine dihydrochloride] | 600 | 30 | 20 | 53 | 260 | 0.13 | 4600 |  |  |  | 
Clc1ccc2c(c1)N(CCN1CCOCC1)c1ccccc1OCO2 [Example 8, 2-Chloro-12H-12-(2-morpholinoethyl)-dibenzo[d,g][1,3,6]dioxazocine maleinate] | > 2000 |  |  |  |  |  |  | 140 | 14 |  | 
CN(C)CCCN1c2cc(Cl)ccc2OCOc2ccc(Cl)cc21 [Example 15, 2,10-Dichloro-12H-12-(3-dimethylaminopropyl)-dibenzo[d,g][1,3,6]dioxazocinemaleinate] | 320 | 4.3 | 74.4 |  |  |  |  | 9 | 35.6 |  | 
N[C@@H](Cc1ccc(O)c(O)c1)C(=O)O [L-DOPA, L-(-)-β-(3,4-dihydroxyphenyl)alanine, reference compound] |  | > 500 | < 5 |  |  |  |  | 500 | < 10 |  | 
CCN(CC)CC(=O)Nc1c(C)cccc1C [Lidocaine, 2-diethylamino-2',6'-acetoxy-xylidide, reference compound] |  |  |  | 25 | 37 | 0.18 |  |  |  |  | 
Cl.OC(CCN1CCCCC1)(c1ccccc1)C1CCCCC1 (stereo not drawn) [Trihexyphenidyl, α-cyclohexyl-α-phenyl-1-piperidinepropanol hydrochloride, reference compound] |  |  |  |  |  |  |  | 80 |  | 15 | 24
